“Also recorded” adds a separate entry of the source. Where two headings read alike, the source gives them in different places.
Assays:
[1] = tested on: antiviral state induced by human α interferon; experiment: cells; type: cell-based; conditions: for inhibited the action of interferon: summary of Table 3, concentrations and serum as in Table 3
[2] = tested on: antiviral state induced by human β interferon; experiment: cells; type: cell-based; conditions: Fibroblast, 6 h, read-out: % inhibition of antiviral state induced by: human β interferon
[3] = biological target: T1, interferon receptors (Homo sapiens, UniProt P17181+P48551); experiment: Binding of 125I-labelled human alpha interferon to human fibroblasts (Scatchard plot), Example 3; conditions: for down regulating the interferon receptors: Figures 4 and 5
T1 construct: endogenous in cells; host or cells: human fibroblasts
T1 sequence (P17181 28-557): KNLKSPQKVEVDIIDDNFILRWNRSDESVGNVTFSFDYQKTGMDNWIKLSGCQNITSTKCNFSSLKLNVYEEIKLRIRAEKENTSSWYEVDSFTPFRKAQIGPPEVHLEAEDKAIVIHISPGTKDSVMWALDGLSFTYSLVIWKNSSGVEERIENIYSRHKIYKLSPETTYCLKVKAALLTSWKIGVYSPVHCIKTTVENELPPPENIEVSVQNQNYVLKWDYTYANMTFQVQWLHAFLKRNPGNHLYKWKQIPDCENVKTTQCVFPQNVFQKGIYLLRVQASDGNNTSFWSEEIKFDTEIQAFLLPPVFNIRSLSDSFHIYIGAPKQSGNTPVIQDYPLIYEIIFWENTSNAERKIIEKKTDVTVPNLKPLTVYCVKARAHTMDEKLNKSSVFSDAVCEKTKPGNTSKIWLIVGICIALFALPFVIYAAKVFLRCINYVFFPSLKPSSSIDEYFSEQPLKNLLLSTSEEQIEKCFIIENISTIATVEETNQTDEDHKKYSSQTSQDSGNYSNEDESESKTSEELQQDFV
T1 sequence (P48551 27-515): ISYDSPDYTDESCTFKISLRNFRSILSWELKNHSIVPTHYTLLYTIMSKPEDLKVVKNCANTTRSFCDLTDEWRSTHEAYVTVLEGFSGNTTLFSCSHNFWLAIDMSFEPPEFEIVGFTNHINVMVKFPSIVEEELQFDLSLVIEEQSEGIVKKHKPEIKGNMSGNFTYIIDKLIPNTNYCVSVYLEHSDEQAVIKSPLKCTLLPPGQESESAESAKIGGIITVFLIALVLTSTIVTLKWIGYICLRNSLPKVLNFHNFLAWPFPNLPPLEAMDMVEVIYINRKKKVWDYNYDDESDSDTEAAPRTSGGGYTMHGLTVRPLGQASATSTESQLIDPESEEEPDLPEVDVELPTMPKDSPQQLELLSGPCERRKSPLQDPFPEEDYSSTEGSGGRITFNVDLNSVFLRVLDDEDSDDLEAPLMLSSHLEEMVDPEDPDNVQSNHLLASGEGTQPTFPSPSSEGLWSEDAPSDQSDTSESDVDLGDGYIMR
Protocol: The binding of interferons to human cells was analysed with human alpha interferon labelled with radioactive iodine. The ¹²⁵I-labelled human alpha interferon was assayed for biological activity as well as analysed by sodium dodecyl sulphate (SDS)-polyacrylamide gel electrophoresis before use to ensure that the labelled ligand was not degraded and biologically active. The labelled ligand was then used in binding studies with human fibroblasts as previously described (Thompson et al., Branca and Baglioni; and Epstein et al.). The results of this study are expressed as a Scatchard plot of the binding data in Figures 3 to 6. The cells were washed twice with growth medium to remove most of the fatty acid before they were used to measure the binding of ¹²⁵I-human alpha interferon to their receptors. B and F are concentration of bound and free ¹²⁵I-human alpha interferon respectively.

[4] = tested on: total cellular protein synthesis; experiment: Total cellular protein synthesis; type: cell-based
[5] = tested on: human alpha interferon-induced antiviral state; experiment: Kinetics of the inhibition of the interferon-induced antiviral state in human fibroblasts, Example 2; type: cell-based
Protocol: Human fibroblasts grown in 96 well Micro-test II plates were incubated with growth medium containing 1% fetal calf serum and 50µM arachidonic acid for up to 6 hours. The cells were then assayed for the inhibition of the human alpha interferon-induced antiviral state.
Also, human fibroblasts in 96 well Micro-test II plates were incubated with growth medium containing 1% fetal calf serum and 50µM arachidonic acid for 6 hours.

[6] = tested on: uptake of ³[H]-uridine by the cells; experiment: Uptake of 3[H]-uridine by the cells; type: cell-based
[7] = tested on: antiviral state induced by human γ interferon; experiment: cells; type: cell-based; conditions: Fibroblast, 6 h, read-out: % inhibition of antiviral state induced by: human γ interferon
[8] = tested on: induction of antiviral state by mouse interferon in mouse L cells; type: cell-based; conditions: 50 µM
[9] = tested on: induction of antiviral state by mouse interferon in mouse A9 cells; type: cell-based; conditions: 50 µM
[10] = tested on: interferon activity; conditions: Sarkar and Gupta; cited from earlier work
[11] = tested on: induction of antiviral state by human α interferon in human fibroblasts; type: cell-based
[12] = tested on: total protein and RNA synthesis in the cells; conditions: at concentrations exceeding 1000µM; Sarkar and Gupta; cited from earlier work
[13] = Homo sapiens, Fibroblast, 6 h, read-out: % inhibition of antiviral state induced by: human α interferon, 50µM compound, 10% fetal calf serum, 6 hours
[14] = Homo sapiens, Fibroblast, 6 h, read-out: % inhibition of antiviral state induced by: human α interferon, 50µM compound, 1% fetal calf serum, 6 hours
[15] = Homo sapiens, Fibroblast, read-out: % inhibition of the antiviral state induced by human α interferon, Table 4: 50 µM compound, 1% fetal calf serum
[16] = Homo sapiens, Fibroblast, read-out: % inhibition of the antiviral state induced by human α interferon, Table 4: 50 µM compound, 10% fetal calf serum

CCCCC/C=C\C/C=C\C/C=C\C/C=C\CCCC(=O)O [sodium arachidonate]
inhibition at 300 µM ([1]; Homo sapiens, Fibroblast, read-out: inhibit the interferon-induced antiviral state, 300µM, 10% fetal calf serum): ≥ 90%

CC(Cc1ccc(O)c(O)c1)C(C)Cc1ccc(O)c(O)c1 (stereo not drawn) [Nordihydroguaiaretic acid, 4,4′-(2,3-dimethyltetramethylene)bis(benzene-1,2-diol)]
inhibition at 50 µM [2]: ≥ 90% | down regulation of the interferon receptors ([3]; 10% fetal calf serum (Figure 6)): does not seem to significantly down regulate | inhibition at 50 µM [1, 13]: ≥ 90% | inhibited the action of interferon [1]: ≥ 90%

CCCCCCCCC#CCC#CCC#CCCCC(=O)O [5,8,11,-eicosatriynoic acid, 5,8,11-eicosatriynoic acid]
inhibition at 50 µM [1, 14]: ≥ 90% | inhibited the action of interferon [1]: ≥ 90%

O=c1c(O)c(-c2ccc(O)c(O)c2)oc2cc(O)cc(O)c12 [Quercetin]
inhibition at 50 µM [1, 13]: 90% | inhibited the action of interferon [1]: ≥ 90%

CC(=O)N1CCN(c2ccc(OC[C@H]3CO[C@](Cn4ccnc4)(c4ccc(Cl)cc4Cl)O3)cc2)CC1 (relative stereo) [Ketoconazole, cis-1-acetyl-4-{4-[2-(2,4-dichlorophenyl)-2-imidazol-1-ylmethyl-1,3-dioxolan-4-ylmethoxy]phenyl}-piperazine, reference compound]
inhibition at 100 µM [2]: ≥ 90% | inhibition of total cellular protein synthesis [4]: did not inhibit | inhibition at 100 µM ([1]; Homo sapiens, Fibroblast, 6 h, read-out: % inhibition of antiviral state induced by: human α interferon, 100µM compound, 10% fetal calf serum, 6 hours): ≥ 90% | inhibited the action of interferon [1]: ≥ 90%

CCCCCC=CCC=CCC=CCC=CCCCC(=O)O [arachidonic acid, 5,8,11,14-eicosatetraenoic acid]
inhibition at 50 µM [2]: ≥ 90% | inhibition of total cellular protein synthesis [4]: did not inhibit | down regulating the interferon receptors [3]: 30-60% | inhibition at 50 µM [1, 14]: ≥ 90% | inhibition at 50 µM [1, 15]: ≥ 90% | inhibition at 50 µM [1, 16]: 0% | inhibition at 300 µM ([1]; Homo sapiens, Fibroblast, read-out: % inhibition of the antiviral state induced by human α interferon, Table 4: 300 µM compound, 10% fetal calf serum): ≥ 90% | inhibited the action of interferon [1]: ≥ 90% | reversibility of the inhibition after removal of compound ([5]; 50µM for 6 hours, washed, reincubated 0.5, 1, 2 or 24 hours, 1% fetal calf serum (Figure 2)): reversible with time | onset of inhibition of the interferon-induced antiviral state ([5]; 50µM, 1% fetal calf serum, incubation up to 6 hours (Figure 1)): within minutes | inhibition of the uptake of ³[H]-uridine by the cells [6]: partially inhibited | inhibition at 50 µM [7]: ≥ 80%

COc1ccc2c(c1)c(CC(=O)O)c(C)n2C(=O)c1ccc(Cl)cc1 [Indomethacin]
% inhibition in mouse L cells [8]: not measurable | % inhibition in mouse A9 cells [9]: not measurable | concentration at which interferon activity could be suppressed [10]: exceeding 1000 µM | % inhibition in human fibroblasts ([11]; 50 µM): not measurable | % inhibition in human fibroblasts ([11]; 300 µM): could not measure any inhibitory effect; also recorded: not measurable

CCCCC1C(=O)N(c2ccccc2)N(c2ccc(O)cc2)C1=O (stereo not drawn) [Oxyphenylbutazone]
% inhibition in mouse L cells [8]: could not measure any inhibitory effect; also recorded: not measurable | % inhibition in human fibroblasts ([11]; 50 µM): could not measure any inhibitory effect; also recorded: not measurable

CC(C)Cc1ccc(C(C)C(=O)O)cc1 (stereo not drawn) [ibuprofen]
effect on total protein and RNA synthesis in the cells [12]: began to inhibit total protein and RNA synthesis | concentration at which interferon activity could be suppressed [10]: exceeding 1000 µM

CCCCCC#CCC#CCC#CCC#CCCCC(=O)O
inhibition at 50 µM [2]: ≥ 90% | inhibition of total cellular protein synthesis [4]: did not inhibit | down regulating the interferon receptors [3]: 30-60% | inhibition at 50 µM [1, 14]: ≥ 90% | inhibition at 50 µM [1, 15]: ≥ 90% | inhibition at 50 µM [1, 16]: 0% | inhibition at 200 µM ([1]; Homo sapiens, Fibroblast, read-out: % inhibition of the antiviral state induced by human α interferon, Table 4: 200 µM compound, 10% fetal calf serum): ≥ 90% | inhibition at 200 µM ([1]; Homo sapiens, Fibroblast, read-out: inhibit the interferon-induced antiviral state, 200µM, 10% fetal calf serum): ≥ 90% | inhibited the action of interferon [1]: ≥ 90% | inhibition of the uptake of ³[H]-uridine by the cells [6]: partially inhibited | inhibition at 50 µM [7]: ≥ 80%
